The target in assay [1] is Superoxide dismutase [Cu-Zn] (Homo sapiens) (UniProt P00441). In words: Binding affinity to Superoxide dismutase [Cu-Zn] (unknown origin) at 3.86 10^-5 mol/l after 10 min by fluorometric analysis.
For assay [2] the target is unchanged. Nature of the assay: Binding affinity to Superoxide dismutase [Cu-Zn] (unknown origin) after 10 min at 30 degC by Stern-Volmer plot analysis.
Assay [3] has the same target. In words: Binding affinity to Superoxide dismutase [Cu-Zn] (unknown origin) after 10 min at 20 degC by Stern-Volmer plot analysis.
Assay [4] shares this target. Nature of the assay: Binding affinity to Superoxide dismutase [Cu-Zn] (unknown origin) at 3.86 10^-5 mol/l after 10 min by UV-Vis spectrophotometric analysis.
The target is the same in assay [5]. Nature of the assay: Binding affinity to Superoxide dismutase [Cu-Zn] (unknown origin) after 10 min at 37 degC by Stern-Volmer plot analysis.
For assay [6], the species on record is Oryctolagus cuniculus. In words: Inactivation of New Zealand white Oryctolagus cuniculus (rabbit) Superoxide dismutase [Cu-Zn] at 28.8 mg QD for 7 days measured up to 7 days by pyrogallol-oxidation method. It counts as functional, organism-based.
Assay [7] is filed under the species Oryctolagus cuniculus. In words: Inactivation of New Zealand white Oryctolagus cuniculus (rabbit) Superoxide dismutase [Cu-Zn] at 28.8 mg QD for 7 days measured after 7 days by pyrogallol-oxidation method. The assay is classed as functional, organism-based.

Activity calls are given as the source filed them. The rule behind the calls is not given here.

Superoxide dismutase [Cu-Zn] (Homo sapiens), sequence (P00441 whole entry): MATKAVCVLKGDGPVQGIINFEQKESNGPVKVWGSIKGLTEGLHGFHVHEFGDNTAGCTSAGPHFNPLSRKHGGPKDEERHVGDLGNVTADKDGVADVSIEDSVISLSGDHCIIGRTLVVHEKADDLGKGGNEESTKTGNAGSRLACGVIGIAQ

Turning to `C[C@H]1c2cccc(O)c2C(=O)C2=C(O)[C@]3(O)C(=O)C(C(N)=O)=C(O)[C@@H](N(C)C)[C@@H]3[C@@H](O)[C@@H]21`, the result in assay [1] and in assay [4] was Active. Further, the K was found to be 7.9 ×10⁶ L/mol in assay [2], 6.73 ×10⁷ L/mol in assay [3] and 1.34 ×10⁶ L/mol in assay [5]. The results for the Kq in assay [2], in assay [3] and in assay [5] were 7.73 ×10¹² L/mol/s, 1.01 ×10¹³ L/mol/s and 6.42 ×10¹² L/mol/s, respectively.

Take `CN(C)[C@@H]1C(O)=C(C(N)=O)C(=O)[C@@]2(O)C(O)=C3C(=O)c4c(O)cccc4[C@@](C)(O)[C@H]3[C@H](O)[C@@H]12`: the outcome in assay [1] and in assay [4] was Active. Moreover, the K in assay [2] came to 8.93 ×10⁴ L/mol; in assay [3], 1.44 ×10⁵ L/mol; in assay [5] it was 3.62 ×10⁴ L/mol. The Kq in assay [2] amounted to 4.22 ×10¹² L/mol/s; in assay [3], 4.37 ×10¹² L/mol/s; in assay [5], 3.96 ×10¹² L/mol/s.

Regarding `CN(C)[C@@H]1C(O)=C(C(N)=O)C(=O)[C@@]2(O)C(O)=C3C(=O)c4c(O)cccc4[C@@](C)(O)[C@H]3C[C@@H]12`, the result (in assay [1]; in the assay listed under Oryctolagus cuniculus [6]; in assay [4]) was Active. Further, the Kq in assay [2] is 5.3 ×10¹² L/mol/s; in assay [3], 5.97 ×10¹² L/mol/s; in assay [5] it was 5.25 ×10¹² L/mol/s. Moreover, the result in the assay filed under Oryctolagus cuniculus [7] was inactive.

(Values after ChEMBL document CHEMBL3045813, “Study of the inactivation of copper, zinc superoxide dismutase by tetracycline analogues” (Med Chem Res, 2008).)
